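In this assay, cells in 96-well plates receive the compound at five concentrations for 48 hours. Endpoints are linearly interpolated between the surrounding concentrations. TGI is the concentration that stops growth completely.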
How the values were obtained:
Assay in all cases: NCI-60 cell line screen, 48 h
A498 renal = tested on: A498 renal
A549 NSCLC = tested on: A549 NSCLC
PC-3 prostate = tested on: PC-3 prostate
SW-620 colon = tested on: SW-620 colon
NCI/ADR-RES ovarian = tested on: NCI/ADR-RES ovarian
SF-539 CNS = tested on: SF-539 CNS
HT29 colon = tested on: HT29 colon
DU-145 prostate = tested on: DU-145 prostate
NCI-H226 lung = tested on: NCI-H226 lung
OVCAR-8 ovarian = tested on: OVCAR-8 ovarian
MDA-MB-435 = tested on: MDA-MB-435
TK-10 renal = tested on: TK-10 renal
SNB-19 CNS = tested on: SNB-19 CNS
SN12C renal = tested on: SN12C renal
SNB-75 CNS = tested on: SNB-75 CNS
HCT-116 colon = tested on: HCT-116 colon
MDA-MB-231 breast = tested on: MDA-MB-231 breast
SF-268 CNS = tested on: SF-268 CNS
HOP-92 NSCLC = tested on: HOP-92 NSCLC
U251 CNS = tested on: U251 CNS
COLO 205 colon = tested on: COLO 205 colon
SK-MEL-28 melanoma = tested on: SK-MEL-28 melanoma
HCT-15 colon = tested on: HCT-15 colon
MDA-N = tested on: MDA-N
M14 melanoma = tested on: M14 melanoma
SF-295 CNS = tested on: SF-295 CNS
CAKI-1 renal = tested on: CAKI-1 renal
OVCAR-3 ovarian = tested on: OVCAR-3 ovarian
KM12 colon = tested on: KM12 colon
ACHN renal = tested on: ACHN renal
EKVX NSCLC = tested on: EKVX NSCLC
UO-31 renal = tested on: UO-31 renal
SK-MEL-5 melanoma = tested on: SK-MEL-5 melanoma
OVCAR-4 ovarian = tested on: OVCAR-4 ovarian
NCI-H23 lung = tested on: NCI-H23 lung
IGROV1 ovarian = tested on: IGROV1 ovarian
OVCAR-5 ovarian = tested on: OVCAR-5 ovarian
RXF 393 renal = tested on: RXF 393 renal

Measured: TGI

COc1cc2c(cc1OC)C1C[C@]3(CCN1CC2)C(=O)N(c1ccccc1)C(=O)N3C(C)=O (stereo partly drawn)
> 200 µM: all assays above

Reference: PubChem BioAssay (NCI)
